The test relates to phosphorylation of AKT in HCC70 cells. Put plainly: Cellular assay: phosphorylation of AKT in HCC70 cells (western blotting). The class given is cell-based. To be noted: Homo sapiens, HCC70, 1 h, HCC70 cells, compound 500 nM, 60 min, inhibition of Akt activity from band intensities. Here is the method: Cellular activity of PI3Kβ inhibitors was determined by quantifying the phosphorylation of AKT in HCC70 cells. AKT phosphorylated at Ser473 and Thr308 were measured using western blotting and specific primary antibodies from Cell Signaling (CST), Danvers, MA. On day 1, HCC70 cells (ATCC #CRL-2315) were seeded into Falcon 12-well cell Culture Plate (Corning #353043) at 100,000 cells per well, in 1 ml complete culture medium (RPMI-1640, GIBCO #11875093) containing 10% heat inactivated FBS (GIBCO #10438026), 1% Pen-Strep (GIBCO #15140122) and incubated at 37° AC, 5% CO2 overnight. On day 2, compound (500 nM) or DMSO (0.1%, Sigma Aldrich #8418) was added and cells were further incubated for 60 min at 37° AC, 5% CO2 in a total volume of 1 ml fresh medium.
At the end of the cell treatment period, media were removed by aspiration and adherent cells were lysed in 100 uL RIPA buffer (Sigma Aldrich #R0278). Equal volume (15 uL) of proteins was resolved by SDS-PAGE and transferred to PVDF (Millipore #IPFL00010) membrane for immunoblot analysis. Primary antibodies to the following proteins were used for immunoblotting: phosphor-AKT (Ser473) (CST #4060), phosphor-AKT (Thr308) (CST #2965), total AKT (CST #9272). Secondary goat anti-rabbit IgG fluorophore conjugated antibody (Invitrogen #A21109) was used to visualize the indicated proteins on an Odyssey CLx imaging system (Li-Cor). Quantification of band intensities was performed using Odyssey 3.0 software. Inhibition of Akt activity was calculated by band intensities using the formula: […]
Index was evaluated by % of AI. Data represent Index+(20˜60%), ++(60%˜80%), +++(80%˜90%), and ++++>90%.
In general terms: A western blot detects proteins with antibodies after separation by electrophoresis.

The mark [1] stands for this setting: read-out: Index of AI (HCC70) p-AKT Thr 308.
Where [2] appears, read: read-out: Index of AI (HCC70) p-AKT ser 473.

Like-named read-outs stand apart in the source and are kept apart here.

On to `CC(Nc1cc(F)cc(F)c1)c1cc(-c2c[nH][nH]c2=O)cc2c(=O)cc(N3CCOCC3)oc12` (centres unmarked) [Compound 61, 4-(8-(1-((3,5-difluorophenyl)amino)ethyl)-2-morpholino-4-oxo-4H-chromen-6-yl)-1H-pyrazol-3(2H)-one], for which the inhibition at 0.5 µM runs as follows: under setting [1], 20 to 60%; under setting [2], 20 to 60%.

With `CN(C)C(=O)c1cc(CN2CCc3c(F)ccc(Cl)c32)c2oc(N3CCOCC3)cc(=O)c2c1` [Compound 62, 8-((7-chloro-4-fluoroindolin-1-yl)methyl)-N,N-dimethyl-2-morpholino-4-oxo-4H-chromene-6-carboxamide], the inhibition at 0.5 µM reads like this: under setting [1], 80 to 90%; under setting [2], 80 to 90%.

As to `CC1Cc2c(F)cc(F)cc2N1Cc1cc(C(=O)N(C)C)cc2c(=O)cc(N3CCOCC3)oc12` (centres unmarked) [Compound 63, 8-((4,6-difluoro-2-methylindolin-1-yl)methyl)-N,N-dimethyl-2-morpholino-4-oxo-4H-chromene-6-carboxamide], the inhibition at 0.5 µM is over 90% under setting [1] and over 90% under setting [2].

For `CN(C)C(=O)c1cc(CN2c3cc(F)cc(F)c3CC2(C)C)c2oc(N3CCOCC3)cc(=O)c2c1` [Compound 66, 8-((4,6-difluoro-2,2-dimethylindolin-1-yl)methyl)-N,N-dimethyl-2-morpholino-4-oxo-4H-chromene-6-carboxamide], the inhibition at 0.5 µM under setting [1] was 80 to 90% and the inhibition at 0.5 µM under setting [2] lay in the range of 80 to 90%. For `CN(C)C(=O)c1cc(CN2CCc3ccccc32)c2oc(N3CCOCC3)cc(=O)c2c1` [Compound 67, 8-(indolin-1-ylmethyl)-N,N-dimethyl-2-morpholino-4-oxo-4H-chromene-6-carboxamide], the inhibition at 0.5 µM under setting [1] fell in the range of 60 to 80% and the inhibition at 0.5 µM under setting [2] fell in the range of 60 to 80%. As to `CN(C)C(=O)c1cc(CN2CCc3c(F)cccc32)c2oc(N3CCOCC3)cc(=O)c2c1` [Compound 68, 8-((4-fluoroindolin-1-yl)methyl)-N,N-dimethyl-2-morpholino-4-oxo-4H-chromene-6-carboxamide], the inhibition at 0.5 µM by setting is: under setting [1], over 90%; under setting [2], over 90%.

Regarding `CN(C)C(=O)c1cc(CN2CCc3ccc(F)cc32)c2oc(N3CCOCC3)cc(=O)c2c1` [Compound 70, 8-((6-fluoroindolin-1-yl)methyl)-N,N-dimethyl-2-morpholino-4-oxo-4H-chromene-6-carboxamide], the inhibition at 0.5 µM is, setting by setting: under setting [1], 80 to 90%; under setting [2], 80 to 90%. Consider `CN(C)C(=O)c1cc(CN2CCc3c(Cl)cccc32)c2oc(N3CCOCC3)cc(=O)c2c1` [Compound 71, 8-((4-chloroindolin-1-yl)methyl)-N,N-dimethyl-2-morpholino-4-oxo-4H-chromene-6-carboxamide], for which the inhibition at 0.5 µM is, setting by setting: under setting [1], over 90%; under setting [2], over 90%.

Turning to `COc1cccc2c1N(Cc1cc(C(=O)N(C)C)cc3c(=O)cc(N4CCOCC4)oc13)CC2` [Compound 72, 8-((7-methoxyindolin-1-yl)methyl)-N,N-dimethyl-2-morpholino-4-oxo-4H-chromene-6-carboxamide], the inhibition at 0.5 µM runs as follows: under setting [1], 20 to 60%; under setting [2], 20 to 60%. Turning to `CCN(CC)C(=O)c1cc(CN2CCc3c(F)cc(F)cc32)c2oc(N3CCOCC3)cc(=O)c2c1` [Compound 78, 8-((4,6-difluoroindolin-1-yl)methyl)-N,N-diethyl-2-morpholino-4-oxo-4H-chromene-6-carboxamide], the inhibition at 0.5 µM lay in the range of 80 to 90% under setting [1] and 80 to 90% under setting [2]. In the case of `CCN(C)C(=O)c1cc(CN2CCc3c(F)cc(F)cc32)c2oc(N3CCOCC3)cc(=O)c2c1` [Compound 79, 8-((4,6-difluoroindolin-1-yl)methyl)-N-ethyl-N-methyl-2-morpholino-4-oxo-4H-chromene-6-carboxamide], the inhibition at 0.5 µM under setting [1] lay within 80 to 90% and the inhibition at 0.5 µM under setting [2] lay in the range of 80 to 90%.

In the case of `CCNC(=O)c1cc(CN2CCc3c(F)cc(F)cc32)c2oc(N3CCOCC3)cc(=O)c2c1` [Compound 80, 8-((4,6-difluoroindolin-1-yl)methyl)-N-ethyl-2-morpholino-4-oxo-4H-chromene-6-carboxamide], the inhibition at 0.5 µM runs as follows: under setting [1], 60 to 80%; under setting [2], 60 to 80%.

For `CC(C)NC(=O)c1cc(CN2CCc3c(F)cc(F)cc32)c2oc(N3CCOCC3)cc(=O)c2c1` [Compound 81, 8-((4,6-difluoroindolin-1-yl)methyl)-N-isopropyl-2-morpholino-4-oxo-4H-chromene-6-carboxamide], the inhibition at 0.5 µM is 60 to 80% under setting [1] and 60 to 80% under setting [2].

As to `CN1CCC(NC(=O)c2cc(CN3CCc4c(F)cc(F)cc43)c3oc(N4CCOCC4)cc(=O)c3c2)CC1` [Compound 82, 8-((4,6-difluoroindolin-1-yl)methyl)-N-(1-methylpiperidin-4-yl)-2-morpholino-4-oxo-4H-chromene-6-carboxamide], the inhibition at 0.5 µM fell in the range of 80 to 90% under setting [1] and 80 to 90% under setting [2]. For `O=C(NC1CCOCC1)c1cc(CN2CCc3c(F)cc(F)cc32)c2oc(N3CCOCC3)cc(=O)c2c1` [Compound 83, 8-((4,6-difluoroindolin-1-yl)methyl)-2-morpholino-4-oxo-N-(tetrahydro-2H-pyran-4-yl)-4H-chromene-6-carboxamide], the inhibition at 0.5 µM runs as follows: under setting [1], 60 to 80%; under setting [2], 60 to 80%. For `CC(C)(O)CNC(=O)c1cc(CN2CCc3c(F)cc(F)cc32)c2oc(N3CCOCC3)cc(=O)c2c1` [Compound 84, 8-((4,6-difluoroindolin-1-yl)methyl)-N-(2-hydroxy-2-methylpropyl)-2-morpholino-4-oxo-4H-chromene-6-carboxamide], the inhibition at 0.5 µM lay within 80 to 90% under setting [1] and 80 to 90% under setting [2]. On to `CC(C)CNC(=O)c1cc(CN2CCc3c(F)cc(F)cc32)c2oc(N3CCOCC3)cc(=O)c2c1` [Compound 85, 8-((4,6-difluoroindolin-1-yl)methyl)-N-isobutyl-2-morpholino-4-oxo-4H-chromene-6-carboxamide], for which the inhibition at 0.5 µM is, setting by setting: under setting [1], 60 to 80%; under setting [2], 60 to 80%. `CNC(=O)c1cc(CN2CCc3c(F)cc(F)cc32)c2oc(N3CCOCC3)cc(=O)c2c1` [Compound 86, 8-((4,6-difluoroindolin-1-yl)methyl)-N-methyl-2-morpholino-4-oxo-4H-chromene-6-carboxamide]: the inhibition at 0.5 µM was over 90% under setting [1] and over 90% under setting [2]. For `CC1(C)CN(C(=O)c2cc(CN3CCc4c(F)cc(F)cc43)c3oc(N4CCOCC4)cc(=O)c3c2)C1` [Compound 87, 8-((4,6-difluoroindolin-1-yl)methyl)-6-(3,3-dimethylazetidine-1-carbonyl)-2-morpholino-4H-chromen-4-one], the inhibition at 0.5 µM is, setting by setting: under setting [1], 60 to 80%; under setting [2], 60 to 80%.

Turning to `CC1(C#N)CN(C(=O)c2cc(CN3CCc4c(F)cc(F)cc43)c3oc(N4CCOCC4)cc(=O)c3c2)C1` [Compound 88, 1-(8-((4,6-difluoroindolin-1-yl)methyl)-2-morpholino-4-oxo-4H-chromene-6-carbonyl)-3-methylazetidine-3-carbonitrile], the inhibition at 0.5 µM is, setting by setting: under setting [1], 60 to 80%; under setting [2], 60 to 80%. `O=C(c1cc(CN2CCc3c(F)cc(F)cc32)c2oc(N3CCOCC3)cc(=O)c2c1)N1CC(O)C1` [Compound 89, 8-((4,6-difluoroindolin-1-yl)methyl)-6-(3-hydroxyazetidine-1-carbonyl)-2-morpholino-4H-chromen-4-one]: the inhibition at 0.5 µM under setting [2] was 20 to 60%.
